Measured values reported in patent US7635711B2, “Glucocorticoid mimetics, methods of making them, pharmaceutical compositions, and uses thereof” (Boehringer-Ingelheim Pharmaceuticals, Inc., priority 2004, dated 2009).

Test system: glucocorticoid receptor
Test: one or more of the above assays (GR binding and GR cell assays for agonist/antagonist activity)
Assay type: cell-based
Conditions: in one or more of the above assays
Description: Compounds found to bind to the glucocorticoid receptor may be evaluated for dissociation of transactivation and transrepression by assays cited in the Background of the Invention (C. M. Bamberger and H. M. Schulte, Eur. J. Clin. Invest., 2000, 30 (suppl. 3) 6-9) or by the assays described below.
B. Glucocorticoid Receptor Cell Assays
1. Induction of Aromatase in Fibroblasts (Cell Assay for Transactivation)
Dexamethasone, a synthetic ligand to the glucocorticoid receptor (GR), induces expression of aromatase in human foreskin fibroblast cells. The activity of aromatase is measured by the conversion of testosterone to estradiol in culture media.
Human foreskin fibroblast cells (ATCC Cat. No. CRL-2429, designation CCD112SK) are plated on 96 well plates at 50,000 cells per well 5 days before use, in Iscove's Modified Dulbecco's Media (GibcoBRL Life Technologies Cat No. 12440-053) supplemented with 10% charcoal filtered FBS (Clonetech Cat No. SH30068) and Gentamycin (GibcoBRL Life Technologies Cat. No. 15710-064). On the day of the experiment, the media in the wells is replaced with fresh media. Cells are treated with test compounds to final concentrations of 10^−5 M to 10^−8 M, and testosterone to a final concentration of 300 ng/mL. Each well has a total volume of 100 μL. Samples are made in duplicates. Control wells include: (a) wells that receive testosterone only, and (b) wells that receive testosterone plus 2 μM of dexamethasone to provide maximum induction of aromatase. Plates are incubated at 37° C. overnight (15 to 18 hours), and supernatants are harvested at the end of incubation. Estradiol in the supernatant is measured using ELISA kits for estradiol (made by ALPCO, obtained from American Laboratory Products Cat. No. 020-DR-2693) according to the manufacture's instruction. The amount of estradiol is inversely proportional to the ELISA signals in each well. The extent of aromatase induction by test compounds is expressed as a relative percentage to dexamethasone. EC50 values of test compounds are derived by non-linear curve fitting.
2. Inhibition of IL-6 Production in Fibroblasts (Cell Assay for Transrepression)
Human foreskin fibroblast cells produce IL-6 in response to stimulation by pro-inflammatory cytokine IL-1.
Human foreskin fibroblast cells (ATCC Cat. No. CRL-2429) are plated on 96 well plates at 5,000 cells per well the day before use, in Iscove's Modified Dulbecco's Media (GibcoBRL Life Technologies Cat. No. 12440-053) supplemented with 10% charcoal filtered FBS (Clonetech Cat. No. SH30068) and Gentamycin (GibcoBRL Life Technologies Cat. No. 15710-064). On the next day, media in the wells is replaced with fresh media. Cells are treated with IL-1 (rhIL-1α, R&D Systems Cat. No. 200-LA) to a final concentration of 1 ng/mL, and with test compounds to final concentrations of 10^−5 M to 10^−8 M, in a total volume of 200 μL per well. Samples are done in duplicates. […] Positive control wells receive IL-1 only and represent maximum (or 100%) amount of IL-6 production. Plates are incubated at 37° C. overnight (15 to 18 hours), and supernatants are harvested at the end of incubation. IL-6 levels in the supernatants are determined by the ELISA kits for IL-6 (MedSystems Diagnostics GmbH, Vienna, Austria, Cat. No. BMS213TEN) according to manufacture's instructions. The extent of inhibition of IL-6 by test compounds is expressed in percentage relative to positive controls. IC50 values of test compounds are derived by non-linear curve fitting.
Evaluation of agonist or antagonist activity of compounds binding to the glucocorticoid receptor may be determined by any of the assays.
3. Modulation of Tyrosine Aminotransferase (TAT) Induction in Rat Hepatoma Cells
Testing of compounds for agonist or antagonist activity in induction of tyrosine aminotransferase (TAT) in rat hepatoma cells. […]

| Compound | activity as an agonist of the glucocorticoid receptor function |
| --- | --- |
| Cc1cc(C)c(S(=O)(=O)NC(Cc2c[nH]c3ccc(F)cc23)C(F)(F)F)c(C)c1 (stereo not shown) [2,4,6-Trimethyl-N-[2,2,2-trifluoro-1-(5-fluoro-1H-indol-3-ylmethyl)ethyl]benzenesulfonamide] | activity as an agonist |
| Cc1cc(C)c(S(=O)(=O)NC(Cn2cc(C)c3ccccc32)C(F)(F)F)c(C)c1 (stereo not shown) [2,4,6-Trimethyl-N-[2,2,2-trifluoro-1-(3-methylindol-1-ylmethyl)ethyl]benzenesulfonamide] | activity as an agonist |
| Cc1cc(C)c(S(=O)(=O)NC(Cc2c[nH]c3c(C#N)cccc23)C(F)(F)F)c(C)c1 (stereo not shown) [N-[1-(7-Cyano-1H-indol-3-ylmethyl)-2,2,2-trifluoroethyl]-2,4,6-trimethylbenzenesulfonamide] | activity as an agonist |
| Cc1cc(C)c(S(=O)(=O)NC(Cc2c[nH]c3cccc(F)c23)C(F)(F)F)c(C)c1 (stereo not shown) [2,4,6-Trimethyl-N-[2,2,2-trifluoro-1-(4-fluoro-1H-indol-3-ylmethyl)ethyl]benzenesulfonamide] | activity as an agonist |
| Nc1cc(Cl)cc(Cl)c1S(=O)(=O)NC(Cc1c[nH]c2ccccc12)C(F)(F)F (stereo not shown) [2-Amino-4,6-dichloro-N-[2,2,2-trifluoro-1-(1H-indol-3-ylmethyl)ethyl]benzenesulfonamide] | activity as an agonist |
| Cc1cc(C)c(S(=O)(=O)NC(Cc2c[nH]c3ccc(C)cc23)C(F)(F)F)c(C)c1 (stereo not shown) [2,4,6-Trimethyl-N-[2,2,2-trifluoro-1-(5-methyl-1H-indol-3-ylmethyl)ethyl]benzenesulfonamide] | activity as an agonist |
| Cc1cc(C)c(S(=O)(=O)NC(Cc2c[nH]c3ccccc23)C(F)(F)F)c(C)c1 (stereo not shown) [2,4,6-Trimethyl-N-[2,2,2-trifluoro-1-(1H-indol-3-ylmethyl)ethyl]benzenesulfonamide] | activity as an agonist |
| Cc1cc(C)c(S(=O)(=O)NC(Cc2c[nH]c3c(C#N)cc(C)cc23)C(F)(F)F)c(C)c1 (stereo not shown) [N-[1-(7-Cyano-5-methyl-1H-indol-3-ylmethyl)-2,2,2-trifluoroethyl]-2,4,6-trimethylbenzenesulfonamide] | activity as an agonist |
| Cc1ccc2[nH]cc(CC(NS(=O)(=O)c3c(N)cc(Cl)cc3Cl)C(F)(F)F)c2c1 (stereo not shown) [2-Amino-4,6-dichloro-N-[2,2,2-trifluoro-1-(5-methyl-1H-indol-3-ylmethyl)ethyl]benzenesulfonamide] | activity as an agonist |
| Cc1cc(C)c(S(=O)(=O)NC(Cc2c[nH]c3ccccc23)C(F)(F)F)c(N)c1 (stereo not shown) [2-Amino-4,6-dimethyl-N-[2,2,2-trifluoro-1-(1H-indol-3-ylmethyl)ethyl]benzenesulfonamide] | activity as an agonist |
| Cc1cc(C)c(S(=O)(=O)NC(Cc2c[nH]c3c(F)cccc23)C(F)(F)F)c(C)c1 (stereo not shown) [2,4,6-Trimethyl-N-[2,2,2-trifluoro-1-(7-fluoro-1H-indol-3-ylmethyl)ethyl]benzenesulfonamide] | activity as an agonist |
| Cc1cc(C)c(S(=O)(=O)NC(Cc2c[nH]c3cc(F)ccc23)C(F)(F)F)c(C)c1 (stereo not shown) [2,4,6-Trimethyl-N-[2,2,2-trifluoro-1-(6-fluoro-1H-indol-3-ylmethyl)ethyl]benzenesulfonamide] | activity as an agonist |

Test system: not given
Test: not given
Conditions: not given

| Compound | melting point [°C] |
| --- | --- |
| O=S(=O)(NC(Cc1c[nH]c2ccccc12)C(F)(F)F)c1ccccc1 (stereo not shown) | 121 to 123 |
